Reference: US20060205669A1, “G-type peptides and other agents to ameliorate atherosclerosis and other pathologies” (The Regents of the University of California, priority 2004, published 2006)

Tests used:
[1] = system: ApoE null mice; assay: HDL paraoxonase activity in apoE null mice; assay type: in vivo; conditions: FIG. 16
Procedure: Female apoE null mice 4 months of age (n=4 per group) were administered by intraperitoneal injection either scrambled D-4F (a non-active control peptide) or D-4F at 10 μg/mouse or the peptide Ac-KWIYHLTEGSTDLRTEG-NH2 (SEQ ID NO:643) synthesized from L-amino acids (L-ApoM) at 50 μg/mouse. The mice were bled 2 or 6 hours later and their HDL isolated by FPLC and the paraoxonase activity in the HDL determined and plotted on the X-axis. Other 4-month-old female apoE null mice (n=4 per group) were administered by gastric gavage the peptide Ac-KWIYHLTEGSTDLRTEG-NH2 (SEQ ID NO:643) synthesized from L-amino acids (L-ApoM) at 100 μg/mouse (L-ApoM by gavage). The mice were bled 6 hours later and their HDL isolated by FPLC and the paraoxonase activity in the HDL determined and plotted on the X-axis.

[2] = system: Human aortic endothelial cells; assay: Prevention of LDL-induced monocyte chemotactic activity in vitro, co-incubation; assay type: cell-based; conditions: co-incubation with control human LDL 200 μg protein/ml, overnight; FIG. 1
Procedure: FIG. 1 illustrates a comparison of the effect of D-4F (Circulation 2002; 105:290-292) with the effect of an apoJ peptide made from D amino acids (D-J336, Ac-LLEQLNEQFNWVSRLANLTQGE-NH2, SEQ ID NO:13) on the prevention of LDL-induced monocyte chemotactic activity in vitro in a co-incubation. Human aortic endothelial cells were incubated with medium alone (no addition), with control human LDL (200 μg protein/ml) or control human LDL+control human HDL (350 μg HDL protein/ml). D-J336 or D-4F was added to other wells in a concentration range as indicated plus control human LDL (200 μg protein/ml). Following overnight incubation, the supernatants were assayed for monocyte chemotactic activity.

[3] = system: Human aortic endothelial cells; assay: Prevention of LDL-induced monocyte chemotactic activity by pre-treatment (pre-incubation) of artery wall cells; assay type: cell-based; conditions: 6 hrs pre-incubation, D-J336 4, 2, 1 μg/ml vs D-4F 100-12.5 μg/ml, FIG. 2
Procedure: FIG. 2 illustrates a comparison of the effect of D-4F with the effect of D-J336 on the prevention of LDL induced monocyte chemotactic activity in a pre-incubation. Human aortic endothelial cells were pre-incubated with D-J336 or D-4F at 4, 2, and 1 μg/ml for DJ336 or 100, 50, 25, and 12.5 μg/ml for D-4F for 6 hrs. The cultures were then washed and were incubated with medium alone (no addition), or with control human LDL (200 μg protein/ml), or with control human LDL+control human HDL (350 μg HDL protein/ml) as assay controls. The wells that were pre-treated with peptides received the control human LDL at 200 μg protein/ml. Following overnight incubation, the supernatants were assayed for monocyte chemotactic activity.

[4] = system: LDL receptor null mice; assay: HDL protective capacity in LDL receptor null mice given peptide in drinking water; assay type: in vivo; conditions: 0.25 or 0.5 mg per ml drinking water, 24 or 48 hrs, mouse HDL at 100 μg cholesterol/ml
Procedure: D-4F designated as F, or the apoJ peptide made from D amino acids (D-J336, designated as J) was added to the drinking water of LDL receptor null mice (4 per group) at 0.25 or 0.5 mg per ml of drinking water. After 24- or 48-hrs blood was collected from the mice and their HDL was isolated and tested for its ability to protect against LDL-induced monocyte chemotactic activity. Assay controls included culture wells that received no lipoproteins (no addition), or control human LDL alone (designated as LDL, 200 μg cholesterol/ml), or control LDL+control human HDL (designated as +HDL, 350 μg HDL cholesterol). For testing the mouse HDL, the control LDL was added together with mouse HDL (+F HDL or +J HDL) to artery wall cell cultures. The mouse HDL was added at 100 μg cholesterol/ml respectively.

[5] = system: ApoE null mice; assay: Protection against LDL-induced monocyte chemotactic activity by HDL from apo E null mice given oral peptides; assay type: in vivo; conditions: peptide in drinking water (D-4F 5-50, D-J336 20-50 μg per ml), 24 hrs, murine HDL at 100 μg cholesterol/ml
Procedure: FIG. 4 illustrates the effect of oral apoA-1 peptide mimetic and apoJ peptide on HDL protective capacity. ApoE null mice (4 per group) were provided with D-4F (designated as F) at 50, 30, 20, 10, 5 μg per ml of drinking water or apoJ peptide (designated as J) at 50, 30 or 20 μg per ml of drinking water. After 24 hrs blood was collected, plasma fractionated by FPLC and fractions containing LDL (designated as mLDL for murine LDL) and fractions containing HDL (designated as mHDL) were separately pooled and HDL protective capacity against LDL oxidation as determined by LDL-induced monocyte chemotactic activity was determined. For the assay controls the culture wells received no lipoproteins (no additions), mLDL alone (at 200 μg cholesterol/ml), or mLDL+standard normal human HDL (designated as Cont. h HDL, at 350 μg HDL cholesterol/ml).
For testing the murine HDL, mLDL together with murine HDL (+F mHDL or +J mHDL) were added to artery wall cell cultures. […] The murine HDL was used at 100 μg cholesterol/ml.

[6] = system: ApoE null mice; assay: Ability of LDL from apoE null mice given oral peptides to induce monocyte chemotactic activity (LDL susceptibility to oxidation); assay type: in vivo; conditions: peptide in drinking water, 24 hrs
Procedure: FIG. 5 illustrates the effect of oral apo A-1 peptide mimetic and apoJ peptide on LDL susceptibility to oxidation. ApoE null mice (4 per group) were provided, in their drinking water, with D-4F (designated as F) at 50, 30, 20, 10, 5 μg per ml of drinking water or the apoJ peptide (D-J336 made from D amino acids and designated as J) at 50, 30 or 20 μg per ml of drinking water. After 24 hrs blood was collected from the mice shown in FIG. 4, plasma fractionated by FPLC and fractions containing LDL (designated as mLDL for murine LDL) were pooled and LDL susceptibility to oxidation as determined by induction of monocyte chemotactic activity was determined. For the assay controls the culture wells received no lipoproteins (no additions), mLDL alone (at 200 μg cholesterol/ml), or mLDL+standard normal human HDL (designated as Cont. h HDL, 350 μg HDL cholesterol).
Murine LDL, mLDL, from mice that received the D-4F (F mLDL) or those that received the apoJ peptide (J mLDL) were added to artery wall cell cultures.

[7] = system: ApoE null mice; assay: Protection against PAPC oxidation by HPODE by HDL from apo E null mice given oral peptides; assay type: in vivo; conditions: peptide in drinking water, 24 hrs, murine HDL at 100 μg cholesterol/ml
Procedure: FIG. 6 illustrates the effect of oral apoA-1 peptide mimetic and apoJ peptide on HDL protective capacity. ApoE null mice (4 per group) were provided with D-4F (designated as F) at 50, 30, 20, 10, 5 μg per ml of drinking water or apoJ peptide (D-J336 made from D amino acids and designated as J) at 50, 30 or 20 μg per ml of drinking water. After 24 hrs blood was collected, plasma fractionated by FPLC and fractions containing HDL (designated as mHDL) were pooled and HDL protective capacity against PAPC oxidation as determined by the induction of monocyte chemotactic activity was determined. For the assay controls the culture wells received no lipoproteins (no additions), the phospholipid PAPC at 20 μg/ml+HPODE, at 1.0 μg/ml, or PAPC+BPODE plus standard normal human HDL (at 350 μg HDL cholesterol/ml and designated as +Cont. h HDL).
For testing the murine HDL, PAPC+HPODE together with murine HDL (+F mHDL or +J mHDL) were added to artery wall cell cultures. […] The murine HDL was used at 100 μg cholesterol/ml.

[8] = system: ApoE null mice; assay: Plasma paraoxonase (PON1) activity in apoE null mice given oral peptides; assay type: in vivo; conditions: apoE null mice, 50, 10 or 5 μg per ml drinking water, 24 hrs, FIG. 7
Procedure: ApoE null mice (4 per group) were provided with D-4F designated as F at 50, 10, 5 or 0 μg per ml of drinking water or apoJ peptide (D-J336 made from D amino acids and designated as J) at 50, 10 or 5 μg per ml of drinking water. After 24 hrs blood was collected and plasma was assayed for PON1 activity.

[9] = system: cynomologous monkeys; assay: Monkey HDL and LDL after oral peptide tested for monocyte chemotactic activity in human artery wall cell cultures; assay type: in vivo; conditions: five milligrams by stomach tube, 6 hours
Procedure: Five milligrams of the peptide LAEYHAK (SEQ ID NO: 8) synthesized from all D-amino acids was administered to each of four cynomologous monkeys in 2.0 mL of water by stomach tube and followed with 2.0 mL of water as a wash. Six hours later the monkeys were bled and their plasma fractionated by fast protein liquid chromatography (FPLC) and tested in human artery wall cell cultures.

Substance: Ac-KWIYHLTEGSTDLRTEG-NH2 [L-ApoM]
- HDL paraoxonase activity ([1]; gastric gavage 100 μg/mouse, bled 6 hours later): increased paraoxonase activity
- HDL paraoxonase activity ([1]; intraperitoneal injection 50 μg/mouse, bled 2 or 6 hours later): increased paraoxonase activity

Substance: Ac-LLEQLNEQFNWVSRLANLTQGE-NH2 [D-J336]
- in vitro concentration that prevents LDL-induced monocyte chemotactic activity by human artery wall cells, times less than the concentration required for D-4F [2]: 10 to 25 times
- potency in preventing LDL oxidation by artery wall cells in vitro, times more potent than D-4F [3]: 10 to 25 times
- potency in preventing LDL oxidation by artery wall cells in vitro, times more potent than D-4F ([3]; listed as ApoJ variant peptide): 10-25 times
- HDL protective capacity against LDL-induced monocyte chemotactic activity ([4]; FIG. 3): as active as 350 μg/ml of control human HDL
- HDL protective capacity against LDL-induced monocyte chemotactic activity ([4]; FIG. 3, listed as DJ335): essentially as effective as D4F
- HDL protective capacity against LDL oxidation (LDL-induced monocyte chemotactic activity) ([5]; FIG. 4): as active as 350 μg/ml of normal human HDL
- HDL protective capacity against LDL oxidation (LDL-induced monocyte chemotactic activity) ([5]; FIG. 4, listed as D-J peptide): as potent as D-4F
- HDL protective capacity against LDL oxidation (LDL-induced monocyte chemotactic activity) ([5]; FIG. 4, listed as DJ336): as potent as D4F
- rendering LDL resistant to oxidation by human artery wall cells (induction of monocyte chemotactic activity) ([6]; FIG. 5): slightly more potent than D-4F
- rendering LDL resistant to oxidation by human artery wall cells (induction of monocyte chemotactic activity) ([6]; FIG. 5, listed as DJ336): slightly more potent than D4F
- causing HDL to inhibit oxidation of PAPC by HPODE (generation of monocyte chemotactic activity) ([7]; FIG. 6): as potent as D-4F
- causing HDL to inhibit oxidation of PAPC by HPODE (generation of monocyte chemotactic activity) ([7]; FIG. 6, listed as DJ336): as potent as D4F
- increasing plasma paraoxonase activity [8]: at least as potent as D-4F
- increasing plasma paraoxonase activity ([8]; listed as DJ336): at least as potent as D4F

Substance: LAEYHAK (Synthetic peptide. Can be protected or unprotected as shown in specification.)
- monocyte chemotactic activity with hLDL plus monkey HDL taken after peptide versus time zero ([9]; monkey HDL 50 μg/mL HDL-cholesterol, FIG. 17 panel B): significantly reduced monocyte chemotactic activity
- monocyte chemotactic activity induced by monkey LDL taken after peptide versus time zero ([9]; monkey LDL 100 μg/mL LDL-cholesterol, FIG. 17 panel C): significantly less monocyte chemotactic activity
